Reference: paper PMC8161398, “Targeting Lactate Dehydrogenase A with Catechin Resensitizes SNU620/5FU Gastric Cancer Cells to 5-Fluorouracil” (International Journal of Molecular Sciences, 2021)

Experiments:
[1] = target: T1, lactate dehydrogenase A (LDHA) (Homo sapiens, UniProt P00338); assay: LDHA activity assay (NADH fluorescence), dose-dependent; format: biochemical
T1 construct: purified recombinant LDHA

[2] = target: T2, lactate dehydrogenase B (LDHB) (Homo sapiens, UniProt P07195); assay: LDHB activity assay (NADH fluorescence), dose-dependent; format: biochemical
T2 construct: purified recombinant LDHB

[3] = target: T1, lactate dehydrogenase A (LDHA); assay: ITC; also purified LDHA activity assay by NADH fluorescence (IC50 =[…]); format: binding

T2 sequence (P07195 2-334): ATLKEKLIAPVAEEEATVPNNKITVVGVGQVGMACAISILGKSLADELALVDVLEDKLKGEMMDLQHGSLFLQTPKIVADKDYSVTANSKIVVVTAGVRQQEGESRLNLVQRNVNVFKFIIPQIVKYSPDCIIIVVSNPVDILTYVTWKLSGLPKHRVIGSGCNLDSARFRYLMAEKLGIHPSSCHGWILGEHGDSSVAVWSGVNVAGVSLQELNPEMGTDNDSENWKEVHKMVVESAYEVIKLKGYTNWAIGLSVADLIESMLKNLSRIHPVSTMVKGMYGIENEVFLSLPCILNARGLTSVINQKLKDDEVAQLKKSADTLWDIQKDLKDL

O=C(O[C@@H]1Cc2c(O)cc(O)cc2O[C@@H]1c1cc(O)c(O)c(O)c1)c1cc(O)c(O)c(O)c1 [EGCG, epigallocatechin-3-gallate]
LDHA activity assay (NADH fluorescence), dose-dependent [1]: LDHA and LDHB activities were measured with EGCG, which is known to inhibit LDHA activity | LDHB activity assay (NADH fluorescence), dose-dependent [2]: exert inhibitory effects on both LDHA and LDHB activities

Oc1cc(O)c2c(c1)OC(c1ccc(O)c(O)c1)C(O)C2 (stereo not drawn) [CA, Catechin]
Kd [3]: 197 µM
